From patent US10695315B2, “Composition comprising avermectin compounds without gelling agents” (Nestlé Skin Health SA, priority 2016, dated 2020)

Test: Physical stability of the composition over time
Type: physicochemical
Details: in composition 2, over time (three months, 5° C. and RT)
Description: “Physical stability” means that the composition meets the acceptance criteria for appearance, physical attributes and functionality test (e.g. color, phase separation, dose delivery per actuation).
The table below represents physical stability of the composition 2 according to the invention at 5° C. and room temperature (RT) during three months.

ivermectin
Ivermectin solubilized state, crystals formation: remains solubilized over time, no crystals formation
